Assay results published in publication PMC11814485, “Screening of homing and tissue-penetrating peptides by microdialysis and in vivo phage display” (Life Science Alliance, 2025).

Legend:
skin wounds = test: Homing of systemically administered FAM-peptides to mouse skin excision wounds and normal organs (anti-FAM staining, QuPath); type: in vivo, mouse (BALB/cJRj); conditions: for localisation in skin wound / accumulation in normal organs: tail vein, 150 min; for localisation in skin wound: anti-FAM and anti-CD31 staining; for accumulation in normal organs: normal skin, heart, liver, lung, spleen, kidney, anti-FAM staining
Method: We next studied homing of systemically administered CDD, CPK, and CYH peptides in mouse skin excision wounds at the peak of neovascularization, 7 d after wounding. The peptides were injected into the tail vein and allowed to circulate for 2.5 h. The systemically administered peptides were detected in the granulation tissue of the wounds outside of the blood vessels (Figs 2 and S4). […] In contrast, the peptides were undetectable in normal skin (Fig S5A), heart, liver, lung, and spleen (Fig S5B), except for strong signal related to peptide secretion from the kidney glomeruli (Fig S5B).
Figure 2. Microdialysis-captured peptides home to skin wounds and localize in granulation tissue. […] Six-mm-diameter full-thickness wounds were cut in the back skin of 8-wk-old male mice. After 7 d, the peptides or PBS was injected systemically (tail vein). The peptides were allowed to circulate for 150 min before the vasculature was thoroughly perfused. The wound tissue was fixed, and microscopic sections were stained with anti-FAM and hematoxylin. (A, B) Magnifications of areas marked in panel (A) are represented in panel (B) with adjacent sections stained with anti-CD31 to visualize the blood vessels. The scale bar is 500 μm for panel (A) and 125 μm for panel (B). Images are representative of two separate experiments, four mice in each peptide group.
Figure 3. Microdialysis-captured peptides home to skin wounds and penetrate blood–retina barrier in retinopathy. Systemically administered homing peptides CDD, CPK, and CYH accumulate in skin wounds and penetrate blood–retina barrier in retinopathy. Full-thickness wounds, 6 mm in diameter, in the back skin of 8-wk-old male mice were used. After 7 d, each peptide or PBS was injected into the tail vein. For retinopathy experiments, oxygen-induced retinopathy (OIR) was induced by placing mouse pups at day P7 in a hyperoxia chamber for 5 d. On P17, when the angiogenesis peaks in this OIR model, the peptides were injected into the tail vein. The peptides circulated for 150 min (wounds) and 120 min (OIR) before the vasculature was thoroughly perfused. The skin wounds and eyeballs were fixed, and histological samples stained with anti-FAM and hematoxylin. Peptide homing was quantified with the automated image analysis system. (A) Microdialysis-identified peptides home to skin wounds. […] (D) All three microdialysis-identified peptides also accumulate substantially in the vitreous in the OIR model. *P < 0.05, **P < 0.01, ***< 0.001. Each datapoint represents an individual wound, retina, or vitreous. N = 3 for skin wound, and N = 6 and N = 8 for normal and OIR retinas.
Male BALB/cJRj and diabetic male BKS(D)-Lepr^db/JOrlRj mice were used for the peptide homing experiment. The BALB/cJRj mice were 8 wk old and weighed 24–28 g. The BKS(D)-Lepr^db/JOrlRj mice were 14 wk old and weighed 45–58 g, and their blood sugar levels were over 33 mmol/liter. Four full-thickness circular wounds were created on a shaved and disinfected skin with a 6-mm-diameter biopsy punch and scissors under isoflurane anesthesia (Attane vet 1,000 mg/g; Piramal Critical Care B.V.) and buprenorphine analgesia (0.15 mg/kg; Vetergesic vet 0.3 mg/ml; Ceva Santé Animal). Seven days after the wounding, the homing experiment was performed. The animal use was accepted by the National Animal Ethics Committee of Finland on 12 September 2017 (ESAVI/6422/04.10.07/2017) and on 4 January 2022 (ESAVI/39175/2021).
BALB/cJRj and diabetic male BKS(D)-Lepr^db/JOrlRj mice with 7-d-old skin wounds were used for the peptide homing experiment. FAM-labeled peptides were dissolved in the PBS just before the experiment. 5 mg/kg (BALB/cJRj) or 1,5 mg/kg (BKS(D)-Lepr^db/JOrlRj) of each peptide (CAR, CDD, CPK, CYH, and a control peptide) in PBS or plain PBS (control) was injected on the tail vein under sevoflurane anesthesia. […]

diabetic skin wounds = test: Homing of FAM-peptides to skin wounds in diabetic mice; type: in vivo, mouse (BKS(D)-Lepr^db/JOrlRj); conditions: 1.5 mg/kg systemically, 150 min, day 7 wound, anti-FAM staining, one animal with two wounds per group
Text: Next, we wanted to study the utility of the newly identified peptides as vehicles for targeting diabetic skin wounds. Compromised angiogenesis in diabetic wounds leads to deficient granulation tissue formation and poses an important hindrance to systemic drug delivery. BALB/cJRj and diabetic male BKS(D)-Lepr^db/JOrlRj mice were wounded and systemically dosed with fluorophore-labeled peptides 7 d after the skin wounding. For all tested peptides, we observed peptide accumulation in the granulation tissue where angiogenesis takes place (Fig S6).
Figure S6. Microdialysis-captured peptides home to skin wounds in diabetic mice. […] Full-thickness wounds 6 mm in diameter were cut in the back skin of 14-wk-old male diabetic mice. After 7 d, 1.5 mg/kg of each peptide or PBS was injected systemically. The CAR peptide was used as a control. The peptide circulated for 150 min before the vasculature was perfused. The wounds were fixed with 4% PFA in PBS, and microscopic sections were stained with anti-FAM and hematoxylin. (A) Images of entire wounds. (B) Magnifications of areas marked in (A) with anti-CD31 staining of the adjacent sections. (A, B) Scale bars are 500 μm for (A) and 125 μm for (B). Images are representative of one animal with two wounds in each group.
Male BALB/cJRj and diabetic male BKS(D)-Lepr^db/JOrlRj mice were used for the peptide homing experiment. The BALB/cJRj mice were 8 wk old and weighed 24–28 g. […]
After 24-h (or 4 h for eyeballs) fixation in 4% PFA, the tissues were rinsed in 70% EtOH and embedded in paraffin. To avoid autofluorescence, the peptides were detected by staining the sections with rabbit anti-FITC/-FAM (71-1900; Thermo Fisher Scientific, 1:400 BALB/cJRj and C57BL/6Rj or 1:100 BKS(D)-Lepr^db/JOrlRj) in Dako antibody diluent (Agilent) and Biocare Medical Rabbit on Rodent (RMR622H; Biocare Medical) with XM-Factor (XMF963C; Biocare Medical) as described previously ([Robinson et al, 2010]; [Urakami et al, 2011]; [Toba et al, 2014]; [Pemmari, et al, 2020b]). […]

| Sequence | accumulation in skin wounds relative to a control (skin wounds; mouse day 7 wound, 5 mg/kg tail vein, 150 min circulation, anti-FAM positive area, N = 3) [fold] | localisation in skin wound (skin wounds; mouse day 7 wound) | accumulation in normal organs (skin wounds) | homing to skin wounds in diabetic mice (diabetic skin wounds) |
| --- | --- | --- | --- | --- |
| CDDYQQISC [FAM-labeled synthetic peptide …] | 12 | accumulated in wound regions containing blood vessels and in surrounding extravascular granulation tissue | do not accumulate in normal, healthy organs except in the kidneys | home and penetrate to the granulation tissue |
| CPKKHHLDC [FAM-labeled synthetic peptide …] |  | accumulated in wound regions containing blood vessels and in surrounding extravascular granulation tissue | do not accumulate in normal, healthy organs except in the kidneys | home and penetrate to the granulation tissue |
| CYHDTYPNC [FAM-labeled synthetic peptide …] |  | accumulated in wound regions containing blood vessels and in surrounding extravascular granulation tissue | do not accumulate in normal, healthy organs except in the kidneys | home and penetrate to the granulation tissue |
